Calls of active or inactive are those of the source.
Legend:
[1] = A549 cell cytotoxicity, dose response, cytotoxicity control, plate reader, cherry-pick, antagonist series (AID 743412); format: functional, cell-based
[2] = biological target: T1, Heat shock factor protein 1 (Mus musculus, UniProt P38532); test: inhibition of MG132-induced HSE-luciferase signal, confirmation, cell-based, NIH3T3, luminescence, dose retest (AID 2382); format: functional;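 further: NIH3T3 fibroblasts with HSF1-driven luciferase reporter stressed by proteasome inhibitor MG132; luminescence from HSF1-driven luciferase expression after 8 hours of MG132 stress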
T1 sequence (P38532 whole entry): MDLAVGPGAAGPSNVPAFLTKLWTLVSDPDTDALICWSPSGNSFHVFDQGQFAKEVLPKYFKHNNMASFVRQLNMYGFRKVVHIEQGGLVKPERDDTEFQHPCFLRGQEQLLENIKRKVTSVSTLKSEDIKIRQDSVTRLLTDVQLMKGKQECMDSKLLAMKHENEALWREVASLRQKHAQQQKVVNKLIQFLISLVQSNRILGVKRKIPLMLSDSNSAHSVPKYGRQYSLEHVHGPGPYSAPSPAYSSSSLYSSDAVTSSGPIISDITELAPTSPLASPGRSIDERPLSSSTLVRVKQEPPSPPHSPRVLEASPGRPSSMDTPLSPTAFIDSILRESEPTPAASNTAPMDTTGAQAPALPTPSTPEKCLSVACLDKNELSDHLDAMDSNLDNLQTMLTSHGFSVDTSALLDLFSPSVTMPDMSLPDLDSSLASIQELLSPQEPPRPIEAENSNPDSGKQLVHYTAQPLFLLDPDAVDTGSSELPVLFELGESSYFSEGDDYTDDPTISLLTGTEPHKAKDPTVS

[3] = LGR2 antagonists, dose response, cell-based, HEK293, CRE-luciferase reporter, cherry pick, set 2 (AID 743343); format: functional;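 further: transfected cells were stimulated with diluted bursicon conditioned medium after compound addition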
[4] = HEK293 cell cytotoxicity, dose response, cytotoxicity control, plate reader, cherry-picked samples (AID 743446); format: functional, cell-based
[5] = MC4R antagonists, dose response, counter-screen for LGR2 antagonist project, cell-based, plate reader, cherry pick (AID 743444); format: functional;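 further: transfected HEK 293 cells stimulated with alpha-MSH peptide; potency of inhibitors of the alpha-MSH evoked signal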
[6] = cytotoxicity in HEK-293T cells, dose response, cytotoxicity control for TCR NF-kB inhibitor project, luminescence, T-cell screen hits (AID 489026); format: functional, cell-based;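 further: cells exposed to compound about 14 hours before the viability readout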
[7] = biological target: Luciferin 4-monooxygenase (Photuris pensylvanica, UniProt Q27757); test: firefly luciferase enzyme inhibitors, dose response, counter-screen for HSF-1 reporter inhibitor project, biochemical, Cell Titer Glo, luminescence, cherry-picks (AID 588847)
Sequence of Luciferin 4-monooxygenase (Q27757 whole entry): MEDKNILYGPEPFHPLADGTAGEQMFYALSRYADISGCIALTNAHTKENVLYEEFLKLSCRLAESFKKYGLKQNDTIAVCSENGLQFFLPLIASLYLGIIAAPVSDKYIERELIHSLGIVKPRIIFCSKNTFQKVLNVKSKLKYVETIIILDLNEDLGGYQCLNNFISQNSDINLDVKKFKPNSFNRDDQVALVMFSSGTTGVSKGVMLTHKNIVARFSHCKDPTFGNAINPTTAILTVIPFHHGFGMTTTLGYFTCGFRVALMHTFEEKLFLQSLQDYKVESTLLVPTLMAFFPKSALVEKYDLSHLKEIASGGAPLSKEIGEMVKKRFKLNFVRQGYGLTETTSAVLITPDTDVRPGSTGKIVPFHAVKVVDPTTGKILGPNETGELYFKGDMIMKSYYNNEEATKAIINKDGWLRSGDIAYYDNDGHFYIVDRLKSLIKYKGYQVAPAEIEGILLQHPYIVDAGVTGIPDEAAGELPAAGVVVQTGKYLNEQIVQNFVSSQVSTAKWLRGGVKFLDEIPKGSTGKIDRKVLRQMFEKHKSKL

[8] = test system: HeLa; test: HeLa cell cytotoxicity, dose response, cytotoxicity control for MITF activator project, CellTiter-Glo luminescence, cherry-pick samples (AID 540259); format: functional, cell-based; conditions: Homo sapiens
[9] = microbe, parasite or virus in culture; format: functional; conditions: Mycobacterium tuberculosis
[10] = test system: H4; test: Luminescence Cell-Based Dose Response HTS to Identify Activators of 5'UTR Stem-Loop Driven Prion Protein mRNA Translation in H4 Neuroglioblastoma Cells. [Related pubchem assays: 1829 (Project Summary), 1814 (Primary HTS)]; format: functional; conditions: Homo sapiens
[11] = Luminescence Cell-Based Dose Response HTS to Identify Activators of Luciferase Translation or Activity in H4 […] Cells. [Related pubchem assays: 1829 (Project Summary), 1814 (Primary HTS)]; format: functional
[12] = C. albicans growth with fluconazole, confirmation, fluorescence, retest (AID 2467); format: functional, cell-based
[13] = NIH-3T3 fibroblast cytotoxicity, dose response, cytotoxicity control, cell-based, fluorescence, Alamar Blue, secondary assay (AID 2327); format: functional;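 further: NIH-3T3 mouse fibroblasts cultured with fluconazole at 8 µg/mL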
[14] = test system: INS1; test: beta cell apoptosis inhibitors, cytokine rescue, dose response, luminescence, retest (AID 449756); format: functional, cell-based; conditions: Rattus norvegicus;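 further: cell death triggered by IL-1 beta plus TNF-alpha plus IFN-gamma mixture; protective hits raise ATP signal compared with cytokine alone wells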
[15] = biological target: E3 ubiquitin-protein ligase Mdm2 (Homo sapiens, UniProt Q00987); test: enhancers of MDM2-luciferase reporter signal, concentration-effect titration, project on inhibitors of MDM2 ubiquitin ligase, cellular assay, luminescent readout, 384-well plate format (AID 1394); format: functional;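 further: MDM2 E3 inhibitors raise luminescence so EC50 is for signal enhancement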
Sequence of E3 ubiquitin-protein ligase Mdm2 (Q00987 whole entry, the tested form may be a part): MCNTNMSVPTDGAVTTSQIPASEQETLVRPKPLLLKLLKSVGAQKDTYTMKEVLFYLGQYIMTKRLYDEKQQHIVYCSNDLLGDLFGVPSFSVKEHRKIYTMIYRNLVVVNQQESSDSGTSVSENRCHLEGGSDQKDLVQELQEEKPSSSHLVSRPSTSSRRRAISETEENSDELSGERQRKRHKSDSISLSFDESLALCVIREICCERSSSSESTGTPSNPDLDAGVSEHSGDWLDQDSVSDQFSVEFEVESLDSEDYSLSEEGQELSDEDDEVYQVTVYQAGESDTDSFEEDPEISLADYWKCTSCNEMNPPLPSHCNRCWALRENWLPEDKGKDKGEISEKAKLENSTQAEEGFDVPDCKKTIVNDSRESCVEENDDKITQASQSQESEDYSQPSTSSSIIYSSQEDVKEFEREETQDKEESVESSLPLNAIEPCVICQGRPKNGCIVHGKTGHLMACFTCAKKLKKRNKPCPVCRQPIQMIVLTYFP

[16] = test system: CHO; test: cytotoxicity in TLR9-MyD88 CHO cells, dose response, cytotoxicity control for TLR9-MyD88 binding inhibitor project, cell-based, luminescence (AID 588339); format: functional, hamster; conditions: Cricetulus griseus;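 further: CHO cells stably coexpressing TLR9 and MyD88 fusions from primary screen; compound exposure lasted 48 hours before viability readout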
[17] = Luminescence Cell-Based Dose Confirmation HTS to Identify Activators of 5'UTR Stem-Loop Driven Alpha-Synuclein mRNA Translation in H4 Neuroglioblastoma Cells. [Related pubchem assays: 1829 (Project Summary), 1814 (Primary HTS)]; format: functional
[18] = biological target: T1, Heat shock factor protein 1; test: HSF1 potentiators in luciferase reporter cells, confirmation, cell-based, NIH3T3, luminescence, dose retest (AID 435004); format: functional;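 further: stress induced by proteasome inhibitor MG132 added 30 min after compound; luciferase reporter driven by HSF1 response element in NIH3T3 cells; actives raise luminescence as potentiators of the MG132 stress response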
[19] = biological target: Serine/threonine-protein phosphatase (Candida dubliniensis (strain CD36 / CBS 7987 / NCPF 3949 / NRRLY-17841) (Yeast), UniProt B9W6M3); test: calcineurin pathway inhibitors in yeast reporter, dose response, S. cerevisiae, CDRE-lacZ, luminescence, secondary (AID 2388); format: functional, cell-based;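 further: yeast reporter cells carrying a calcineurin-responsive lacZ construct stimulated with calcium chloride; luminescent beta-galactosidase reporter signal in whole cells rather than isolated phosphatase activity; potency for inhibition where a drop in reporter signal means calcineurin blockade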
Sequence of Serine/threonine-protein phosphatase (B9W6M3 whole entry): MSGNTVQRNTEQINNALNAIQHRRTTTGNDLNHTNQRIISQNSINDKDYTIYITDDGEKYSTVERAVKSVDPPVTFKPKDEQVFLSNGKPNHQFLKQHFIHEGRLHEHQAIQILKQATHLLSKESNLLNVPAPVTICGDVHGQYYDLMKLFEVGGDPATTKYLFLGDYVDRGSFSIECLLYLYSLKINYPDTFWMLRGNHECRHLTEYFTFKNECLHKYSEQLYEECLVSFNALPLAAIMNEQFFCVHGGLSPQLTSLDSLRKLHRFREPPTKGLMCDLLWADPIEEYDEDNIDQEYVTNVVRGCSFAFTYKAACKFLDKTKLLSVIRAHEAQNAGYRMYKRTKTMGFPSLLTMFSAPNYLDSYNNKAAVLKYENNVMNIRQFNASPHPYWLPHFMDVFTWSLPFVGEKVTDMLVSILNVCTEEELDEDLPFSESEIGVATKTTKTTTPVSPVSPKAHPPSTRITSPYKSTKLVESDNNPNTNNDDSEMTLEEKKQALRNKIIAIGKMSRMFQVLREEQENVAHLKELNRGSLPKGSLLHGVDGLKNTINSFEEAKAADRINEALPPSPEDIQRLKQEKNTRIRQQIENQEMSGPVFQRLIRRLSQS

[20] = biological target: ATP-dependent molecular chaperone HSP82 (Candida albicans (strain WO-1) (Yeast), UniProt C4YTQ8); test: loss of DOC-induced GRE-beta-galactosidase reporter signal, dose response, Hsp90 inhibitor project, S. cerevisiae, luminescence (AID 2400); format: functional, cell-based;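 further: beta-galactosidase luminescence from glucocorticoid response element reporter as proxy for Hsp90 function; inhibitor potency where signal loss means Hsp90 inhibition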
Sequence of ATP-dependent molecular chaperone HSP82 (C4YTQ8 whole entry): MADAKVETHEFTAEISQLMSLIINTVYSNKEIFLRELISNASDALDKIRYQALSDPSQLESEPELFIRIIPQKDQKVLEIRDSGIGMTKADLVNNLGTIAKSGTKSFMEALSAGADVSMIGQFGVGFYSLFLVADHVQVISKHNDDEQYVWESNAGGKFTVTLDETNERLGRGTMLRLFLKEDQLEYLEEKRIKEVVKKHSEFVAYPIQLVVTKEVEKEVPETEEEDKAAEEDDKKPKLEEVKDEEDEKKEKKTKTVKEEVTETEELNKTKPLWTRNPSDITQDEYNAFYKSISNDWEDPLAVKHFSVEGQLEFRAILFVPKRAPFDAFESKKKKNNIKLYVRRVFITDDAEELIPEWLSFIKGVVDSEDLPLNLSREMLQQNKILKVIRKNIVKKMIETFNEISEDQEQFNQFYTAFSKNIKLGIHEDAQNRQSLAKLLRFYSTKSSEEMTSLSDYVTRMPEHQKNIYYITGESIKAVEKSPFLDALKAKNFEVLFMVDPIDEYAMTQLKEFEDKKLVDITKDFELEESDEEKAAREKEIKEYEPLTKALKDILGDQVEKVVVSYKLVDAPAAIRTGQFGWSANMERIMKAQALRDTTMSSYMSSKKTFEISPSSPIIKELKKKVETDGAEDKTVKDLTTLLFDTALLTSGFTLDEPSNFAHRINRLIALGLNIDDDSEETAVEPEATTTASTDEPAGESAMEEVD

CC1CCCN(c2ncnc3c2cnn3-c2ccc(Cl)cc2)C1 (configuration not stated)
AC50 [1]: > 52 µM (inactive) | EC50 [2]: < 160 nM (active) | AC50 [3]: < 68 nM (active) | AC50 [4]: > 52 µM (inactive) | AC50 [5]: 155 nM (active) | IC50 [6]: > 80 µM (inactive) | AC50 [7]: 1.34 µM (active)

COc1ccc(COc2ccc3ccc(=O)oc3c2)cc1
AC50 [8]: 93.8 µM (active)

C=C1C(=O)O[C@@H]2C[C@@H](C)[C@@H]3C4OC4C(=O)[C@@]3(C)[C@@H](O)[C@H]12 (some centres not stated)
CC50 [9]: 4.92 µM (active) | EC50 [10]: > 120 µM (not active) | EC50 [11]: > 120 µM (not active) | EC50 [12]: 644 nM (active) | EC50 [13]: 6.66 µM (inconclusive) | AC50 [14]: 8.02 µM (active) | EC50 [15]: 11.6 µM (not active) | IC50 [16]: 2.43 µM (active) | EC50 [17]: > 120 µM (not active)

CCC(C)n1cnc2c(c1=O)c1nc3ccccc3nc1n2Cc1ccc(OC)cc1 (configuration not stated)
EC50 [18]: > 260 µM (inactive) | EC50 [19]: > 180 µM (inactive) | EC50 [12]: 356 nM (active) | EC50 [13]: 47.7 µM (active) | EC50 [20]: 14.7 µM (active)
